Twelve molecules from PubChem BioAssay (NCI) can be followed below.

Test systems include ACHN renal; SNB-75 CNS; SK-MEL-28 melanoma; KM12 colon; RXF 393 renal; UO-31 renal; SNB-19 CNS; T-47D breast; SN12C renal; OVCAR-4 ovarian.
Holding throughout (assay): NCI anticancer screen, dose series, 48 h

“And” between values parts separate entries of the source, which are not always exact repeats. Equal values may be shown once.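 96-well plates; 48 h exposure; 5 concentrations. Endpoints by linear interpolation between flanking doses. Not reached: highest tested concentration assigned. GI50 marks 50% less growth. TGI marks complete inhibition of growth.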

With `COc1ccc(-c2csc(-c3cc(Cl)cc(Cl)c3Cl)n2)cc1`, the GI50 is greater than 100000 nM in the test with ACHN renal; 40000 nM with SNB-75 CNS; greater than 100000 nM in the test on SK-MEL-28 melanoma; 48100 nM in the test with KM12 colon; 46400 nM in the test on RXF 393 renal; greater than 100000 nM with UO-31 renal. Further, the GI50 is 50300 nM in the test with SNB-19 CNS, 40300 nM with T-47D breast, greater than 100000 nM with SN12C renal and 53800 nM in the test with OVCAR-4 ovarian. For the same molecule, the TGI in the test with ACHN renal, with SNB-75 CNS, in the test with SK-MEL-28 melanoma, in the test on KM12 colon, with RXF 393 renal and with UO-31 renal was greater than 100000 nM throughout. In addition, the TGI with SNB-19 CNS, in the test with T-47D breast, in the test on SN12C renal and in the test with OVCAR-4 ovarian was greater than 100000 nM throughout.
Turning to `CCCCCCCC(=O)SCC/C=C/[C@@H]1CC(=O)NCc2nc(co2)C2=N[C@@](C)(CS2)C(=O)N[C@@H](C(C)C)C(=O)O1`, the GI50 is 47.5 nM with ACHN renal; 10.8 nM in the test on SNB-75 CNS; 13.8 nM in the test with SK-MEL-28 melanoma; 25.3 nM with KM12 colon; 21.2 nM with RXF 393 renal; 43 nM with UO-31 renal. The GI50 is 115 nM in the test with SNB-19 CNS, 31.2 nM in the test with T-47D breast, 50.8 nM with SN12C renal and 27.6 nM in the test on OVCAR-4 ovarian. Also, the TGI in the test on ACHN renal was 320 nM; in the test on SNB-75 CNS it was greater than 50000 nM; in the test with SK-MEL-28 melanoma, 936 nM; in the test with KM12 colon it was 1610 nM; with RXF 393 renal, 139 nM; in the test with UO-31 renal, 487 nM. The TGI in the test on SNB-19 CNS is greater than 50000 nM; in the test with T-47D breast, 201 nM; in the test with SN12C renal it was greater than 50000 nM; with OVCAR-4 ovarian it was greater than 50000 nM.
As to `O=[N+]([O-])c1ccc(Sc2c3ccccc3nc3ccccc23)nc1`, the TGI in the test on ACHN renal was determined as 20500 nM; in the test on SNB-75 CNS, 29200 nM; in the test on SK-MEL-28 melanoma, 15600 nM; in the test with KM12 colon, 44500 nM; in the test on RXF 393 renal, 7080 nM; in the test with UO-31 renal, 12400 nM. Also, the TGI with SNB-19 CNS was found to be 40500 nM; in the test with T-47D breast, 6520 nM; in the test on SN12C renal, 29600 nM; in the test with OVCAR-4 ovarian it was 12900 nM.
Turning to `NC(=O)/C=C/NC(=O)/C=N\O`, the TGI with ACHN renal, with SNB-75 CNS, in the test with SK-MEL-28 melanoma, in the test with KM12 colon, in the test with RXF 393 renal and with UO-31 renal was greater than 100000 nM throughout. The TGI in the test on SNB-19 CNS, in the test with T-47D breast, in the test with SN12C renal and in the test with OVCAR-4 ovarian was greater than 100000 nM throughout.
Take `CN(CCCl)c1ccc(/C=C/C2=[N+](C)c3ccccc3C2(C)C)cc1`: the GI50 with ACHN renal is 2190 nM; in the test with SNB-75 CNS, 1200 nM; with SK-MEL-28 melanoma, 685 nM; in the test with KM12 colon, 355 nM; in the test on RXF 393 renal, 1570 nM; in the test on UO-31 renal, 4390 nM. Further, the GI50 with SNB-19 CNS was 495 nM; in the test on T-47D breast, 706 nM; in the test on SN12C renal, 297 nM; in the test on OVCAR-4 ovarian, 1620 nM. In addition, the TGI with ACHN renal came out at 10600 nM; in the test on SNB-75 CNS, 6910 nM; with SK-MEL-28 melanoma, 15600 nM; in the test on KM12 colon, 1550 nM; in the test on RXF 393 renal, 10500 nM; in the test with UO-31 renal it was 17400 nM. In addition, the TGI was found to be 15500 nM in the test on SNB-19 CNS, 10200 nM in the test with T-47D breast, 1720 nM in the test with SN12C renal and 10000 nM in the test with OVCAR-4 ovarian.
As for `Nc1nc(N)c2nc(CNc3ccc(C(=O)NC(CCCNC(=O)c4ccccc4C(=O)O)C(=O)O)cc3)cnc2n1` (centres undefined), the GI50 is 1.81 nM with ACHN renal; < 10 nM and 2.97 nM in the test with KM12 colon; 5.32 nM in the test on UO-31 renal; 2.27 nM with SN12C renal; greater than 100000 nM with OVCAR-4 ovarian. Further, the TGI in the test with ACHN renal, with SNB-75 CNS, in the test on SK-MEL-28 melanoma, in the test on KM12 colon, in the test with RXF 393 renal and in the test with UO-31 renal was greater than 100000 nM throughout. Moreover, the TGI with SNB-19 CNS, in the test with T-47D breast, in the test with SN12C renal and in the test on OVCAR-4 ovarian was greater than 100000 nM each time.
In the case of `O=C(CCCCCCSc1nc(-c2ccc(Cl)cc2)cc(-c2ccc(Cl)cc2)n1)NO`, the GI50 is 1210 nM in the test with ACHN renal; 1320 nM with SNB-75 CNS; 2040 nM with SK-MEL-28 melanoma; 2020 nM in the test with KM12 colon; 1070 nM in the test with RXF 393 renal; 735 nM in the test with UO-31 renal. Moreover, the GI50 with SNB-19 CNS was 1970 nM; in the test with T-47D breast it was 1390 nM; in the test on SN12C renal, 1600 nM; in the test on OVCAR-4 ovarian, 1570 nM. Besides, the TGI with ACHN renal was 3590 nM; in the test with SNB-75 CNS, 15600 nM; in the test with SK-MEL-28 melanoma, greater than 50000 nM; in the test with KM12 colon, greater than 50000 nM; with RXF 393 renal, 2830 nM; in the test with UO-31 renal it was 2420 nM. Moreover, the TGI in the test with SNB-19 CNS is 20400 nM; in the test with T-47D breast, 9130 nM; with SN12C renal it was 6240 nM; with OVCAR-4 ovarian, greater than 50000 nM.
For the molecule `CC1=C[S+](c2ccccc2)c2cccc3cc4ccccc4c1c23` (centres undefined), the GI50 in the test on ACHN renal was 734 nM; with SNB-75 CNS it was 452 nM; in the test with SK-MEL-28 melanoma, 511 nM; with KM12 colon it was 109 nM; with RXF 393 renal, 618 nM; in the test on UO-31 renal, 312 nM. The GI50 with SNB-19 CNS was 350 nM; in the test with T-47D breast, 217 nM; with SN12C renal, 172 nM; in the test on OVCAR-4 ovarian, 773 nM. Moreover, the TGI in the test with ACHN renal came out at 14400 nM; with SNB-75 CNS it was 1550 nM; with SK-MEL-28 melanoma, 1890 nM; in the test with KM12 colon it was 1210 nM; in the test on RXF 393 renal it was 2050 nM; in the test on UO-31 renal it was 7640 nM. The TGI with SNB-19 CNS was 1500 nM; in the test with T-47D breast, 1250 nM; with SN12C renal it was 1250 nM; with OVCAR-4 ovarian, 2440 nM.
Turning to `CCc1nc(Cl)nc(Cl)c1Cl`, the TGI in the test with ACHN renal is 1500 nM; in the test with SNB-75 CNS, 18300 nM; in the test with SK-MEL-28 melanoma it was 17700 nM; in the test on KM12 colon, 15500 nM; with RXF 393 renal, 4370 nM; in the test on UO-31 renal, 674 nM. For the same molecule, the TGI was found to be 11300 nM in the test on SNB-19 CNS, 22000 nM in the test with T-47D breast, 6690 nM with SN12C renal and 2060 nM in the test on OVCAR-4 ovarian.
Take `COc1cnc2c(c1)C(=O)c1c-2n(CCCN2CCCC2)c(=O)c2cc(F)ccc12`: the GI50 in the test with ACHN renal is 155 nM; in the test on SNB-75 CNS, 327 nM; in the test on SK-MEL-28 melanoma, 2490 nM; with KM12 colon, 284 nM; in the test with RXF 393 renal, 360 nM; in the test on UO-31 renal, 152 nM. The GI50 was 240 nM with SNB-19 CNS, 218 nM in the test on T-47D breast, 214 nM with SN12C renal and 365 nM with OVCAR-4 ovarian. Also, the TGI with ACHN renal was found to be 461 nM; in the test on SNB-75 CNS it was 5440 nM; in the test on SK-MEL-28 melanoma, 14700 nM; with KM12 colon, 4730 nM; in the test with RXF 393 renal, 1530 nM; in the test with UO-31 renal, 1040 nM. For the same molecule, the TGI in the test on SNB-19 CNS is 2740 nM; in the test with T-47D breast it was 10200 nM; with SN12C renal, 10000 nM; in the test on OVCAR-4 ovarian, 11300 nM.
In the case of `COc1ccccc1S(=O)(=O)Nc1ccc2c(c1)CN(C)C(=O)N2`, the GI50 was 4760 nM and 8290 nM in the test with ACHN renal; 266 nM and 481 nM in the test with SNB-75 CNS; 5620 nM and 7410 nM in the test with SK-MEL-28 melanoma; 14600 nM and 7410 nM in the test with KM12 colon; 4720 nM and 5160 nM with RXF 393 renal; 1410 nM and 1050 nM in the test on UO-31 renal. In addition, the GI50 in the test with SNB-19 CNS was 7300 nM and 5070 nM; in the test with T-47D breast, 3270 nM; with SN12C renal, 11000 nM and 7500 nM; with OVCAR-4 ovarian, 3400 nM and 4280 nM. Further, the TGI in the test on ACHN renal is greater than 100000 nM; in the test with SK-MEL-28 melanoma, greater than 100000 nM; in the test on KM12 colon, greater than 100000 nM; in the test on RXF 393 renal, 28300 nM and > 60200 nM; in the test with UO-31 renal, greater than 100000 nM; with SNB-19 CNS it was greater than 100000 nM. Moreover, the TGI in the test on T-47D breast, in the test with SN12C renal and in the test on OVCAR-4 ovarian was greater than 100000 nM throughout.
For the molecule `COc1cc2nc3cc([N+](=O)[O-])ccc3c(NCCCNCC(C)(C)O)c2cc1OC`, the GI50 in the test with ACHN renal was 576 nM; with SNB-75 CNS, 300 nM; in the test on SK-MEL-28 melanoma it was 839 nM; in the test on KM12 colon, 410 nM; with RXF 393 renal, 297 nM; with UO-31 renal, 1460 nM. Also, the GI50 is 303 nM in the test on SNB-19 CNS, 237 nM with T-47D breast, 232 nM in the test with SN12C renal and 198 nM with OVCAR-4 ovarian. The TGI with ACHN renal was determined as 6070 nM; in the test on SNB-75 CNS it was 1610 nM; in the test on SK-MEL-28 melanoma, 2500 nM; with KM12 colon, 1600 nM; in the test with RXF 393 renal, 1240 nM; in the test on UO-31 renal, 5140 nM. In addition, the TGI was 1410 nM in the test with SNB-19 CNS, 756 nM in the test with T-47D breast, 1110 nM in the test with SN12C renal and 777 nM with OVCAR-4 ovarian.
